This passage reports melting point results from the Bradley open melting point set (2014).

Several values for one entry are separate records, joined by “and”; a condition that tells them apart may be missing. Equal entries are not always repeated. Structures can show the parent of a compound that is named as a salt.

As a reminder, the melting point is the temperature, or range, at which the solid turns liquid.

As to `O=C(O)C1=CCCCC1` [1-cyclohexene-1-carboxylic acid], the melting point came out at 32 °C. In turn, `Nc1cc(C(F)(F)F)ccc1N1CCOCC1` [2-(4-morpholinyl)-5-(trifluoromethyl)aniline] came in with a melting point of 127 °C. For `CCCCCS` [1-pentanethiol], the melting point is -76 °C. In the case of `CN(C)c1cccc2c(S(=O)(=O)Cl)cccc12` [dansyl chloride] it was 72 °C; in that of `COC(=O)/C=C/C(=O)OC` [dimethyl_fumarate], 104 °C; in that of `O=C1CCCC1` [Cyclopentanone], -51 °C. In the case of `c1csc(C2CNCCN2)c1` (centres undefined) [2-(2-thienyl)piperazine] it was 83 °C. In the case of `COC(=O)c1cc(OC)cc(OC)c1` [methyl_3,5-dimethoxybenzoate] it was 43 °C; in that of `CCCOCCO` [2-Propoxyethanol], -75 °C; in that of `CC[C@H]1OC(=O)[C@H](C)[C@@H](O[C@H]2C[C@@](C)(OC)[C@@H](O)[C@H](C)O2)[C@H](C)[C@@H](O[C@@H]2O[C@H](C)C[C@H](N(C)C)[C@H]2O)[C@](C)(O)C[C@@H](C)C(=O)[C@H](C)[C@@H](O)[C@]1(C)O` [Erythromycin], 191 °C. Turning to `CC(=O)NC1=C(C)CCCC1` [N-(2-methylcyclohex-1-en-1-yl)acetamide], the melting point stood at 90 °C.

Compound `COc1ccc(/C=C/C(=O)O)c(Cl)c1OC` [2-chloro-3,4-dimethoxycinnamic acid] showed a melting point of 195 °C. `Cc1ccc2[nH]cnc2c1` [5-methylbenzimidazole] returned a melting point of 115 °C. Consider `O=Cc1cccc(O)c1O` [2,3-dihydroxybenzaldehyde], for which the melting point was determined as 108 °C. In the case of `O=[N+]([O-])c1cc(F)ccc1O` [4-fluoro-2-nitrophenol] it was 75 °C. Regarding `O=C(O)c1cc([N+](=O)[O-])cc([N+](=O)[O-])c1` [3,5-dinitrobenzoic acid], the melting point amounted to 206 °C. For the compound `OCCCCCCCCO` [1,8-octanediol], the melting point was found to be 60 °C. In the case of `O=S(=O)(Cc1ccccc1)c1ccccc1` [benzyl phenyl sulfone] it was 149 °C.

Compound `O=C(O)c1ccc(Br)cc1` [p-bromobenzoic acid] showed a melting point of 252 °C. In the case of `Cc1ccc(O)c(-c2ccno2)c1` [2-(5-isoxazolyl)-4-methylphenol] it was 176 °C; in that of `Clc1cc(Cl)cc(-c2nnn[nH]2)c1` [5-(3,5-dichlorophenyl)-1h-tetrazole], 207 °C; in that of `N#Cc1ccc(CO)cc1` [p-cyano_benzyl_alcohol], 42 °C. Compound `COc1cccc(OC)c1B(O)O` [2,6-dimethoxybenzeneboronic acid] registered a melting point of 107 °C. With `O=[N+]([O-])c1cc([N+](=O)[O-])c(C2CO2)cc1C1CO1` (centres undefined) [2,2'-(4,6-dinitrobenzene-1,3-diyl)dioxirane], the melting point stood at 154 °C. The compound `OCc1ccccc1-c1ccccc1` [2-biphenylmethanol] displayed a melting point of 49 °C.

Regarding `Cl/C(Cl)=C/C3C(C(=O)OC(C#N)c2cccc(Oc1ccccc1)c2)C3(C)C` (centres undefined), the melting point is 68.5 °C. With `OB(O)c1cc(Cl)cnc1Cl` [2,5-dichloropyridine-3-boronic acid] the figure was 154 °C; with `COc1ccc2c(c1)CC1(CCC(O)(c3ccc(C(C)(C)C)cc3)CC1)C2O` (centres undefined), 104 °C. In the case of `Brc1cc(Br)cc(Br)c1` [1,3,5-tribromobenzene], the melting point was 123 °C. `O=C1CC(c2ccccc2)Oc2cc(O)ccc21` (centres undefined) [7-hydroxyflavanone] yielded a melting point of 188 °C. Consider `CC12CCC3C(CCC4CC(=O)CCC43C)C1CCC2=O` (centres undefined) [androstane-3,17-dione], for which the melting point was found to be 132 °C.

Turning to `O=CC(=Cc1ccco1)c1ccccc1` [3-(2-furyl)-2-phenylpropenal], the melting point came to 59 °C.

Consider `CN(C)c1ccc(/C=C/C=O)cc1` [4-dimethylamino cinnamaldehyde], for which the melting point was 136 °C. `BrC(Br)C(Br)Br` [1,1,2,2-tetrabromoethane]: the melting point came to 0 °C. `O=[N+]([O-])c1ccco1` [2-Nitrofuran] returned a melting point of 31 °C. Take `c1ccc2c(c1)cc1ccc3cccc4ccc2c1c34` [benzo(a)pyrene]: the melting point worked out at 179 °C. For `CCc1cccc(CC)c1NC(=O)CCl` [2-chloro-2',6'-diethylacetanilide], the melting point was found to be 130 °C.

Compound `CCCCCCCCNCCCCCCCC` [N-Octyloctan-1-amine] yielded a melting point of 14 °C. Consider `IC(I)I` [Iodoform], for which the melting point was 122 °C. Compound `Cc1c(C)c(C)c(C)c(C)c1C` [Hexamethylbenzene] returned a melting point of 167 °C. Regarding `C=CCCCCCCCCCC` [Dodec-1-ene], the melting point was -35 °C. `O=C(Oc1ccc([N+](=O)[O-])cc1)c1ccccc1` [4-nitrophenyl benzoate] came in with a melting point of 143 °C.

In turn, `CC(C)(N)CO` [2-amino-2-methyl-1-propanol] showed a melting point of 26 °C. Regarding `CCCCN` [1-aminobutane], the melting point is -49 °C.

Turning to `Cc1ccc(C)o1` [2,5-dimethylfuran], the melting point is -62 °C.

`CN1C(C(=O)Nc2ccccn2)=C(O)c2ccccc2S1(=O)=O` [piroxicam] registered a melting point of 198 °C.

`c1ccc2ccccc2c1` [naphthalene]: the melting point is 83 °C and 80.2 °C. The compound `Oc1ccc(OCc2ccccc2)cc1` [4-benzyloxyphenol] registered a melting point of 120 °C. As to `CCCSc1ccc2[nH]c(NC(=O)OC)nc2c1` [albendazole], the melting point was 209 °C. With `CC(=O)c1sccc1N` [2-acetyl-3-aminothiophene] the figure was 86 °C.

In turn, `COC(=O)c1ccc(I)cc1` [methyl 4-iodobenzoate] yielded a melting point of 115 °C. For `COc1ccc(Cl)c([N+](=O)[O-])c1` [4-chloro-3-nitroanisole], the melting point stood at 44 °C.

`CCCCCCCCCCCCCCCCCCN` [Octadecan-1-amine] came in with a melting point of 56 °C. `O=C(Cl)OCc1ccccc1` [benzyl chloroformate] displayed a melting point of -20 °C. In turn, `COc1ccc(N)c(C)c1` [4-Methoxy-2-methylaniline] showed a melting point of 13.5 °C. `CCCCCc1ccc(B(O)O)cc1` [4-n-pentylbenzeneboronic acid] registered a melting point of 83 °C. On to `Nc1ccc(C(=O)O)cc1` [4-Aminobenzoic acid], for which the melting point amounted to 189 °C.

For the compound `COC=O` [Methyl formate], the melting point was -100 °C.

Compound `CC(C)OC(=O)Nc1ccccc1` [isopropyl n-phenylcarbamate] showed a melting point of 88 °C.

On to `CN1CCC(CN2c3ccccc3Sc3ccccc32)C1` (centres undefined) [methdilazine], for which the melting point is 87 °C. Compound `CC(=O)Oc1cccc(C(C)=O)c1` [3-acetoxy_acetophenone] displayed a melting point of 44 °C.

Compound `COc1cc(C(=O)O)cc(OC)c1OC` [3,4,5-trimethoxybenzoic acid] gave a melting point of 170 °C.

`Nc1ccccc1` [aniline]: the melting point was -6 °C (4×) and -6.2 °C (2×).

Consider `CC(C)c1ccc(O)cc1` [4-isopropylphenol], for which the melting point was 60 °C.
